pIC50: −log10 of the molar value. Calls of active or inactive are those of the source. How the calls were made is not given here.
Assay: NCOA3 reporter inhibition potency – cell-based, luminescence, counter-screen for SRC1 inhibitor project, dose response (AID 602234);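 further: HEK293 cells co-transfected with pGL4.31 reporter and pBIND-SRC3 fusion vector; potency for inhibition of reporter luminescence with Gossypol as full inhibition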
Conditions: transfected HEK293 cells, counter-screen luciferase reporter

With `Cc1ccc(S(=O)(=O)Nc2c(NC3CCCCC3)c3ccccc3oc2=O)c(C)c1` the IC50 was 23.1 µM (inactive).
For `Cc1ccc(NC(=O)CCC(=O)N/N=C/c2ccc(O)cc2O)cc1`, the IC50 was 13.5 µM (inactive).
In the case of `CCN(C(=O)c1cccc(S(=O)(=O)N(C)C)c1)C12CC3CC(CC(C3)C1)C2`, the IC50 was 13.8 µM (inactive).
With `COC(=O)N(NC(=O)C(O)(CCC(C)C)CCC(C)C)c1ccccc1` the IC50 was > 35.9 µM (inactive).
For `O=C(Nc1nc(-c2ccccn2)cs1)c1cccc(-n2cnnn2)c1`, the IC50 was 21.7 µM (inactive).
For `CC(C)(C)OC(=O)NCC(=O)Oc1cc2oc(=O)cc(-c3ccccc3)c2cc1Cl`, the IC50 was 11.5 µM (inactive).
For `CCCS(=O)(=O)c1c(S(=O)(=O)CCC)c2c(C)cccn2c1C(=O)N/N=C/c1cc(O)cc(O)c1`, the IC50 was 10.2 µM (inactive).
With `CC(=O)c1cc2c(C)cc(=O)oc2cc1O` the IC50 was 11.2 µM (inactive).
With `Cc1sc2ncnc(N3CCC(C(=O)Nc4cc(S(C)(=O)=O)ccc4Cl)CC3)c2c1C` the IC50 was 10.1 µM (inactive).
In the case of `CCC(C)(C)n1nnnc1CN1CCC(n2c(C)nc3cc(C(F)(F)F)ccc32)CC1`, the IC50 was > 35.9 µM (inactive).
With `COc1ccccc1/C=C\C(=O)NCC(=O)N/N=C/c1cccc(OC)c1O` the IC50 was 12.9 µM (inactive).
With `COc1ccc2c(c1)-c1c(ssc1=S)C(C)(C)N2C(=O)CSC1=NCCS1` the IC50 was 11.2 µM (inactive).
In the case of `CCn1c2ccccc2c2cnc(N=CN(C)C)c(C#N)c21`, the IC50 was 11.3 µM (inactive).

First: Cc1ccc(S(=O)(=O)NC(CC(C)C)C(=O)NCC(c2ccco2)N2CCCCC2)cc1 (stereo not given)
Second: CCOC(=O)c1c(NC(=O)C(C)N2CCN(C(=O)c3ccco3)CC2)sc2c1CCCC2 (stereo not given)
The pIC50 of the first is 0.51 log units higher: 5.51 for the first, 5.00 for the second.

Going from `c1cc2[nH]snc2c2nc(C3CC3)nc12` to `O=C1NCCc2c1[nH]c1ccc([N+](=O)[O-])cc21`, the pIC50 falls from 5.92 to 5.08 (0.84 log units). The first is the more potent here.

Compared with `O=C(NC(NC(=S)N1CCOCC1)C(Cl)(Cl)Cl)c1ccc(Cl)cc1` (stereo not given), `O=C(NC(=S)Nc1ccc(N2CCN(C(=O)c3ccccc3)CC2)cc1)c1cccs1` is 0.25 log units lower in pIC50: 5.40 for the first, 5.15 for the second.

`COc1cc(C(=O)NC(=S)NNC(=O)c2cnccn2)cc(OC)c1OC` and `COc1ccc2c(=O)cc(-c3ccncc3)oc2c1OC` are within 0.2 log units of each other in pIC50: 5.45 for the first, 5.50 for the second.

`CC(=O)c1cccc(NC(=O)COc2cc3oc(=O)c(CC(C)O)c(C)c3cc2Cl)c1` (stereo not given) and `Cc1sc2ncnc(N3CCC(C(=O)N(C)CC(=O)Nc4cccc(F)c4)CC3)c2c1C` are within 0.2 log units of each other in pIC50: 5.20 for the first, 5.09 for the second.

Compared with `Cc1nc2sc(C(N)=O)c(N)c2c(C)c1CC(=O)c1ccccc1`, `Cc1ccc(OCC(=O)c2cc(C)n(Cc3cccs3)c2C)c([N+](=O)[O-])n1` is 0.30 log units lower in pIC50: 5.58 for the first, 5.28 for the second. The first is the more potent here.

Going from `CC(=O)C1=C(C)NC2=C(C(=O)CC(C)(C)C2)C1C` (stereo not given) to `CC1(C)Cc2c(ccc3ccccc23)C(=O)N1`, the pIC50 rises from 5.10 to 5.49 (0.39 log units).

Going from `CN(Cc1cnc2nc(N)nc(N)c2n1)c1ccc(C(=O)NC(CCC(=O)O)C(=O)O)c2ccccc12` (stereo not given) to `Nc1nc(CCl)nc(Nc2cccc3ccccc23)n1`, the pIC50 falls from 7.73 to 5.44 (2.29 log units). The first is the more potent here.

`O=C(CCl)N1N=C(c2ccco2)CC1c1ccco1` (stereo not given) and `O=C(CCl)N1N=C(c2ccco2)CC1c1cccs1` (stereo not given) are within 0.2 log units of each other in pIC50: 6.12 for the first, 6.16 for the second.

Going from `Cc1ccc(/C=C2/SC(=S)N(CCCC(=O)Nc3ccc(O)cc3)C2=O)cc1` to `Cc1ccc(/C=C2\SC(=S)N(CCCC(=O)NC3CCCC3)C2=O)cc1`, the pIC50 rises from 5.49 to 5.80 (0.31 log units).

Compared with `Cc1nc2ccccn2c1-c1ccnc(=S)[nH]1`, `Cc1cc(=O)[nH]c(Nc2cccc(Br)c2)n1` is 0.20 log units lower in pIC50: 5.37 for the first, 5.17 for the second. The first is the more potent here.

`Cc1ccccc1C(=O)/C(C#N)=N/Nc1c(C)n(C)n(-c2ccccc2)c1=O` and `CCCCCCCC[n+]1c(C)n(-c2ccccc2)c2ccc(NC(C)=O)cc21` are within 0.2 log units of each other in pIC50: 5.45 for the first, 5.36 for the second.

Compared with `C=CCn1c(O)c(C(C)=NCc2cc(OC)cc(OC)c2)c(=O)[nH]c1=O`, `COc1cc(/C=C2\SC(N)=NC2=O)cc(OC)c1` is 0.84 log units lower in pIC50: 5.99 for the first, 5.15 for the second. The first is the more potent here.

First: COC(=O)c1sc2cnccc2c1N
Second: COc1cccc(/C=N/NC(=O)CNC(=O)C2COc3ccccc3O2)c1O (stereo not given)
The pIC50 of the first is 0.29 log units lower: 5.08 for the first, 5.37 for the second. The second is the more potent here.

`O=C(c1ccncc1)N(Cc1cc2ccccc2[nH]c1=O)C1CCCCC1` and `O=C(Nc1cccc2c1CCCC2)c1cc([N+](=O)[O-])ccc1Cl` are within 0.2 log units of each other in pIC50: 5.27 for the first, 5.46 for the second.

`NS(=O)(=O)c1ccc(Nc2nc(-c3cccnc3)cs2)cc1` and `COc1ccc(-c2ncncc2-c2ccccc2)c(O)c1` are within 0.2 log units of each other in pIC50: 5.21 for the first, 5.37 for the second.

Compared with `O=C1c2cccc(OCc3ccc(F)cc3)c2CCN1Cc1ccccc1`, `CCN(c1ccccc1)S(=O)(=O)c1cc(C(=O)Nc2ccc(Br)cc2)ccc1F` is 0.20 log units lower in pIC50: 5.38 for the first, 5.18 for the second.

`Fc1ccc(CSc2nnc(-c3ccncc3)o2)cc1` and `CN(C)c1ccc(Nc2ncnc3ccc(Br)cc23)cc1` are within 0.2 log units of each other in pIC50: 5.57 for the first, 5.68 for the second.

Going from `O=C1CCC2S/C(=C/Nc3ccc(C(F)(F)F)cc3)C(=O)N12` (stereo not given) to `CCCCCOc1ccc(/C=C/c2c([N+](=O)[O-])c(=O)n(C)c(=O)n2C)cc1`, the pIC50 rises from 5.14 to 5.36 (0.22 log units).

`COc1cc2c(cc1OC)C(C)N(C(=O)c1cccc([N+](=O)[O-])c1)CC2` (stereo not given) and `COc1cccc(CNc2ncnc3ccc(-c4c(C)noc4C)cc23)c1` are within 0.2 log units of each other in pIC50: 5.14 for the first, 5.00 for the second.

`O=C(CCCOc1ccc(Cl)cc1Cl)N/N=C/c1ccccc1O` and `COc1ccc(Oc2nc3c(c(=O)n(C)c(=O)n3C)n2C)cc1` are within 0.2 log units of each other in pIC50: 5.20 for the first, 5.11 for the second.
